Laboratory results as given in patent publication US7273866B2, “2-aryl thiazole derivatives as KCNQ modulators” (Bristol-Myers Squibb Company, priority 2002, dated 2007).

Key:
[1] = system: peripheral mononeuropathy nerve injury-induced tactile allodynia; test: Chung model of neuropathic pain (Chung surgery and von Frey test); type: in vivo, Sprague Dawley rats; conditions: 100 mg/kg, i.v.; von Frey thresholds over 90 min, rat
Method: Chung model of neuropathic pain (Chung surgery and von Frey test). To test agents for activity against peripheral mononeuropathy nerve injury-induced tactile allodynia, male Sprague Dawley rats (wt. 120-160 g) were surgically prepared with unilateral tight ligation of spinal nerves L5 and L6 following the method of Kim and Chung (Kim S. H., Chung J. M. (1992) Pain, September; 50(3):355-63). After 3-4 weeks recovery, paw withdrawal to light touch was assessed as described by Chaplan et al. (Chaplan S. R., et al., (1994) J. Neurosci Methods, July; 53(1):55-63). […] After acclimation, baseline von Frey thresholds were assessed for the injured hindpaw at −15 min. […] Following drug administration, von Frey thresholds were measured at 15, 30, 60 and 90 min. Data were analyzed by a 2-way repeated measures analysis of variance followed by Dunnett's test (p<0.05). […]
Reversal of neuropathic pain behavior may be expressed as a percentage (0-100%) of the maximum possible effect, over and above the vehicle effects. […]
For example, a compound which immediately reversed neuropathic pain behavior to normal levels, such that animals only responded to the highest von Frey filament (15 g), and maintained normal levels through out the post-drug testing period (90 min) would be calculated as Δ% MPE=100%.

[2] = system: KCNQ channels; test: Thallium flux assay for KCNQ channel openers; type: cell-based; conditions: HEK-293 cells stably transfected with a KCNQ family member; for Min. conc. response: minimal active concentration: lowest concentration giving signal amplitude >= four standard deviations of negative controls; for EC50: thallium flux, 10 point concentration series
Outline: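 HEK-293 lines stably expressing individual KCNQ members, loaded with BTC-AM in chloride-free buffer pH 7.3, compound added (1% DMSO final) before 7.5 mM Tl2SO4 stimulus; fluorescence read 60 s on FLIPR. Minimal active concentration at ≥4 SD above negative controls; EC50 from 10-point logistic fit.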

SMILES | AUC (Δ % MPE) [1] | Min. conc. response [2] [µM] | EC50 [2] [nM]
NCC1(CC(=O)O)CCCCC1 [Gabapentin, gabapentin, reference compound] | 50 (100 mg/kg, i.v.) Δ % MPE | – | –
C[C@@H]1CN(c2cccc([C@H](C)NC(=O)c3sc(-c4ncccc4CN4CCOCC4)nc3C(F)(F)F)c2)C[C@H](C)O1 [Example 64, (S)-2-[3-(4-morpholinylmethyl)pyridin-2-yl]-4-(trifluoromethyl)-N-[1-[3-(2,6-dimethyl-4-morpholinyl)phenyl]ethyl]-5-thiazolecarboxamide] | – | 10 | 50 to 1000
CCN(CC)Cc1ccccc1-c1nc(C(F)(F)F)c(C(=O)N[C@@H](C)c2cccc(OC)c2)s1 [Example 82] | – | 0.3 | 50 to 1000
CCN(Cc1ccncc1)Cc1cccnc1-c1nc(C(F)(F)F)c(C(=O)N[C@@H](C)c2cccc(N3CCOCC3)c2)s1 [Example 62] | – | 3 | 50 to 1000
COc1ccc(F)cc1-c1nc(C(F)(F)F)c(C(=O)NCc2cccc(F)c2)s1 [Example 44, 2-(5-fluoro-2-methoxyphenyl)-4-(trifluoromethyl)-N-[(3-fluorophenyl)methyl]-5-thiazolecarboxamide] | – | 3 | 50 to 1000
CC(NC(=O)c1sc(-c2ncccc2CN2CCOCC2)nc1C(F)(F)F)c1cccc(C(F)(F)F)c1 (stereo not shown) [Example 124] | – | 3 | –
COc1ccccc1-c1nc(C(F)(F)F)c(C(=O)NC(C)c2cccc(N3CCCCC3)c2)s1 (stereo not shown) [Example 32, 2-(2-methoxyphenyl)-4-(trifluoromethyl)-N-[1-[3-(1-piperidinyl)phenyl]ethyl]-5-thiazolecarboxamide] | – | 0.3 | < 50
Cc1cccnc1-c1nc(C(F)(F)F)c(C(=O)N[C@@H](C)c2cccc(N3CCOCC3)c2)s1 [Example 118] | – | 10 | –
CC(NC(=O)c1sc(-c2cccc(F)c2)nc1C(F)(F)F)c1cccc(OC(F)(F)F)c1 (stereo not shown) [Example 95] | – | 0.3 | –
CC(NC(=O)c1sc(-c2ccccc2CN(C)C)nc1C(F)(F)F)c1cccc(C(F)(F)F)c1 (stereo not shown) [Example 105] | – | 30 | –
CCN(CC)CCOc1ccccc1-c1nc(C(F)(F)F)c(C(=O)NC(C)c2cccc(OC(F)(F)F)c2)s1 (stereo not shown) [Example 104] | – | 10 | –
CC(NC(=O)c1sc(-c2ccccc2Cl)nc1C(F)(F)F)c1cccc(C(F)(F)F)c1 (stereo not shown) [Example 51, 2-(2-chlorophenyl)-4-(trifluoromethyl)-N-[1-[3-(trifluoromethyl)phenyl]ethyl]-5-thiazolecarboxamide] | – | 0.3 | 50 to 1000
CCN(Cc1ccncc1)Cc1cccnc1-c1nc(C(F)(F)F)c(C(=O)N[C@@H](C)c2cccc(N3C[C@@H](C)O[C@@H](C)C3)c2)s1 [Example 66] | – | 3 | 50 to 1000
C[C@H](NC(=O)c1sc(-c2ccccc2Cl)nc1C(F)(F)F)c1cccc(N2CCOCC2)c1 [Example 52, 2-(2-chlorophenyl)-4-(trifluoromethyl)-N-[1-[3-(4-morpholinyl)phenyl]ethyl]-5-thiazolecarboxamide] | – | 3 | 50 to 1000
CC(NC(=O)c1sc(-c2ccccc2F)nc1C(F)(F)F)c1cccc(N(C)Cc2ccco2)c1 (stereo not shown) [Example 35, 2-(2-fluorophenyl)-4-(trifluoromethyl)-N-[1-[3-[(2-furanylmethyl)methylamino]phenyl]ethyl]-5-thiazolecarboxamide] | – | 0.3 | 50 to 1000
CCN(Cc1cccnc1-c1nc(C(F)(F)F)c(C(=O)N[C@@H](C)c2cccc(N3C[C@@H](C)O[C@@H](C)C3)c2)s1)C(C)C [Example 65] | – | 10 | 50 to 1000
COc1ccccc1-c1nc(C(F)(F)F)c(C(=O)NC(C)c2cccc(C(F)(F)F)c2)s1 (stereo not shown) [Example 19, 2-(2-methoxyphenyl)-4-(trifluoromethyl)-N-[1-[3-(trifluoromethyl)phenyl]ethyl]-5-thiazolecarboxamide] | – | 3 | < 50
